Details: Liquid; for speed of sound: Pulse-echo method; for mass density: Vibrating tube method

CCCCCCCCCCCCCCCCCc1ccccc1 [heptadecane, 1-phenyl-]
Details | mass density, 303.15 K [kg/m3] | mass density, 313.15 K [kg/m3] | mass density, 323.15 K [kg/m3] | mass density, 333.15 K [kg/m3] | mass density, 343.15 K [kg/m3] | speed of sound, 303.15 K [m/s] | speed of sound, 313.15 K [m/s] | speed of sound, 323.15 K [m/s] | speed of sound, 333.15 K [m/s] | speed of sound, 343.15 K [m/s]
100 kPa | 847.62 | 840.87 | 834.27 | 827.59 | 820.95 | 1422.6 | 1387.1 | 1352.6 | 1319.9 | 1287
5000 kPa | 850.37 | 843.75 | 837.23 | 830.84 | 824.32 | – | – | – | – | –
10000 kPa | 853.14 | 846.65 | 840.29 | 833.94 | 827.71 | 1467.5 | 1433.6 | 1402.3 | 1370.2 | 1338.7
15000 kPa | 855.85 | 849.47 | 843.15 | 837.13 | – | – | – | – | – | –
20000 kPa | 858.47 | 852.17 | 845.93 | 839.97 | – | 1510.9 | 1479.2 | 1447.9 | 1417.3 | –
25000 kPa | 861 | 854.73 | 848.7 | 842.84 | – | – | – | – | – | –
30000 kPa | 863.37 | 857.38 | 851.34 | 845.52 | – | 1552 | 1520.4 | 1490.8 | 1461.4 | –
35000 kPa | 865.81 | 859.9 | 853.89 | 848.14 | – | – | – | – | – | –
40000 kPa | 868.19 | 862.24 | 856.43 | 850.62 | – | 1590.5 | 1559.7 | 1531.1 | 1502.9 | –
45000 kPa | 870.43 | 864.56 | 858.84 | 853.3 | – | – | – | – | – | –
50000 kPa | 872.65 | 866.8 | 861.35 | 855.69 | – | 1627.2 | 1597.9 | 1569.2 | 1542.1 | –
55000 kPa | 874.7 | 869.08 | 863.55 | 858 | – | – | – | – | – | –
60000 kPa | 876.93 | 870.6 | 865.8 | 860.35 | – | 1661.9 | 1633.6 | 1605.8 | 1579.2 | –
70000 kPa | – | – | – | – | – | 1695.6 | 1667.3 | 1640.7 | 1614.6 | –
80000 kPa | – | – | – | – | – | – | 1700 | 1673.9 | 1648.7 | –
90000 kPa | – | – | – | – | – | – | 1731.8 | 1705.8 | 1681.3 | –
100000 kPa | – | – | – | – | – | – | 1762 | 1736.6 | 1712.2 | –
110000 kPa | – | – | – | – | – | – | 1790.2 | 1766.3 | 1742.3 | –
120000 kPa | – | – | – | – | – | – | 1818.7 | 1794.9 | 1771.7 | –
130000 kPa | – | – | – | – | – | – | 1847.1 | 1822.8 | 1799.8 | –
140000 kPa | – | – | – | – | – | – | – | 1849.3 | 1826.9 | –
150000 kPa | – | – | – | – | – | – | – | 1875.5 | 1853.6 | –
